One series deals with MDCK cysts. As to conditions: read-out: IC50 of inhibition of cystic growth; MDCK cysts in 3D collagen I gel, 96 hours incubation, Alamar Blue.
Another series has as its system jck kidney. Briefly: PCNA and TUNEL staining of jck kidney sections. The format is in vivo, mouse. The settings on record: Roscovitine treated jck kidney.
Series [1] has as its system cystic kidneys (cell cycle and transcription proteins). Briefly: Western blot analysis of cystic kidney protein extracts. Format: in vivo, mouse. As to conditions: cystic kidneys of treated mice. The method, then: Kidneys were homogenized in RIPA buffer (10 mM HEPES, pH 8.0, 100 mM NaCl, 1% Triton X-100, 0.1% SDS, 0.5% sodium deoxycholate, 1 mM DTT, 1 mM EDTA, 1 mM NaF, 1 mM Na3VO4) with Complete™ protease inhibitor cocktail (Roche Diagnostic GmbH, Mannheim, Germany). 30 μg of protein samples were separated in 4-12% SDS/acrylamide gels (Invitrogen, Carlsbad, Calif.). Gels were soaked in transfer buffer (192 mM glycine, 25 mM Tris, 10% methanol, pH 8.3) and transferred to Immobilone-P membranes (Millipore Corporation, Bedford, Mass.). Membranes were rehydrated with methanol and incubated in blocking buffer (5% powdered milk or 3% BSA in PBS) for 30 min. Membranes were incubated overnight at 4° C. with primary antibodies against RNApolII-p, p35/p25 (Abcam, Cambridge, Mass.); Rb-p, cycD1, cycD1-p, ERK2, ERK1/2-p (Cell Signaling, Danvers, Mass.); Rb2, RBBP, cycD3, caspase-2, caspase-3, ApaF1, Bcl-2, Bcl-XL, BAD (BD Biosciences, San Jose, Calif.); CDK7, CDK9, PCNA, GAPDH (US Biologicals, Swampscott, Mass.); cycD2 (BioSource International, Camarillo, Calif.), washed in TBST and incubated with HRP-labeled secondary antibodies as recommended by the manufacturer Immunoreactive proteins were detected using enhanced chemi-luminescence (Amersham Pharmacia Biotech, Little Chalfont Buckinghamshire, England).
For orientation: Immunoblotting shows a protein as a band on a membrane.

In another series the test system is cpk model of PKD. As to conditions: cpk mice, 100 mg/kg IP daily, day 7 till day 21.
[2] abbreviates: jck female, 150 mg/kg IP daily, continuous 5 W.
The mark [3] stands for this setting: jck male, 50 mg/kg IP daily, continuous 5 W.
The mark [4] stands for this setting: jck male, 150 mg/kg IP daily, continuous 5 W (Table 2).
Setting [5] is: jck male, 150 mg/kg, daily dosing for 5 weeks (Table 2a).
Where [6] appears, read: jck male, 150 mg/kg, pulse treatment 5 W (1/1): 1 week on, 1 week off for 5 weeks.
Setting [7] is: jck male, 150 mg/kg, pulse treatment 5 W (3/2): 3 weeks on, 2 weeks off.

SMILES strings stand for the structures. Like-named read-outs stand apart in the source and are kept apart here.

Regarding `CC[C@H](CO)Nc1nc(N(C)Cc2ccccc2)c2ncn(C(C)C)c2n1`, the IC50 with MDCK cysts turned out to be 190 µM.

On to `CC[C@H](CO)Nc1nc(NCc2ccccc2)c2ncn(C(C)C)c2n1` [Roscovitine, 6-benzylamino-2-(R)-[(1-ethyl-2-hydroxy)ethylamino]-9-isopropylpurine], for which the PCNA-positive cells result in the series with jck kidney (PCNA immunostaining) is listed as “quantitative reduction in PCNA-positive cells”. The TUNEL-positive cells result in the series with jck kidney (TUNEL staining) was “reduced the number of TUNEL-positive cells”. The “Cyclin D2 and D3 expression” value in series [1] is listed as “downregulated”. Besides, in series [1], the “Level of ERK 1/2 activation” value is reported as “decreasing the level of ERK 1/2 activation”. The “Levels of Rb associated proteins Rb2 and RBB2” value in series [1] is reported as “normalized”. For the same molecule, the “Phosphorylation level of cyclin D1 (Thr-286)” value in series [1] is given as “normalized phosphorylation level of cyclin D1”. In series [1], the Rb phosphorylation entry is “dephosphorylation of Rb3”. Also, the “RNA pol II phosphorylation” value in series [1] (vs WT controls) is “reduced levels of RNA pol II phosphorylation”. The BUN in the series on jck mouse model of PKD (setting [2]) is recorded as 31.09 ± 6.12 mg/dL; with jck mouse model of PKD (setting [3]) it was 51.25 ± 10.19 mg/dL; in the series with jck mouse model of PKD (setting [4]), 26.78 ± 3.31 mg/dL; in the series on jck mouse model of PKD (setting [5]) it was 28.89 ± 7.51 mg/dL; in the series on jck mouse model of PKD (setting [6]), 43.90 ± 13.08 mg/dL; in the series on jck mouse model of PKD (setting [7]), 27.60 ± 4.32 mg/dL. Also, the “BUN” value in the series with jck mouse model of PKD (jck mice, 50 mg/kg) is “reduced”; in the series on jck mouse model of PKD (jck mice, 150 mg/kg) it was “normalized”; in the series on cpk model of PKD it was 54.58 ± 9.60 mg/dL. Further, the Body weight with jck mouse model of PKD (setting [2]) was 19.79 ± 0.80 g; in the series on jck mouse model of PKD (setting [3]) it was 20.54 ± 1.66 g; in the series on jck mouse model of PKD (setting [4]) it was 21.52 ± 1.78 g; in the series with jck mouse model of PKD (setting [5]) it was 22.33 ± 1.05 g; in the series on jck mouse model of PKD (setting [6]), 22.14 ± 1.10 g; with jck mouse model of PKD (setting [7]), 22.77 ± 0.39 g. In addition, the Body weight in the series with cpk model of PKD is 9.75 ± 1.00 g. In addition, the Cystic volume in the series with jck mouse model of PKD (setting [2]) is on record as 0.74 ± 0.24 % BW; in the series with jck mouse model of PKD (setting [3]), 2.25 ± 0.66 % BW; with jck mouse model of PKD (setting [4]), 0.98 ± 0.15 % BW; in the series on jck mouse model of PKD (setting [5]), 1.10 ± 0.41 % BW; in the series with jck mouse model of PKD (setting [6]), 1.28 ± 0.22 % BW; with jck mouse model of PKD (setting [7]) it was 1.29 ± 0.40 % BW. This molecule returned a Cystic volume in the series with cpk model of PKD of 14.62 ± 2.16 % BW. Besides, the “Tolerability (weight loss, mortality, toxicity)” value in the series with jck mouse model of PKD (jck mice, 50 or 150 mg/kg IP) is reported as “well tolerated with no weight loss, mortality or toxicity”. In addition, the “Cystogenesis with intermittent dosing” value in the series with jck mouse model of PKD (jck mice, daily for one week followed by one week off, total of 5 weeks) was “reduction of cystogenesis was detected”. For the same molecule, the “Anti-cystic effect after drug withdrawal” value in the series with jck mouse model of PKD (jck/jck males, 150 mg/kg daily for 3 weeks, followed by 2 weeks without treatment) was “long lasting anti-cystic effect was detected with normalized levels of BUN”. The molecule further registered a Creatinine with cpk model of PKD of 0.29 ± 0.07 mg/dL.

A word on the IC50: it is the concentration needed to halve the response being measured.

The values are drawn from patent US20140249165A1, “PURINE DERIVATIVES FOR TREATMENT OF CYSTIC DISEASES” (Genzyme Corporation, priority 2006, published 2014).
